Reference: ChEMBL document CHEMBL5137017, “Identification of NVP-CLR457 as an Orally Bioavailable Non-CNS-Penetrant pan-Class IA Phosphoinositol-3-Kinase Inhibitor” (J Med Chem, 2022)
≈ marks a conversion by molar mass, not a printed value. Calls of active or inactive are those of the source. No cut-off for these calls is given here.

Key:
[1] = Toxicity in athymic nude mouse xenografted with rat Rat1 cells expressing myr-p110alpha assessed as decrease in body weight at 40 mg/kg, po bid measured after 9 days; assay type: organism-based; conditions: in vivo, 216 h, time 9 day
[2] = Tlast in athymic nude mouse xenografted with rat Rat1 cells expressing myr-p110alpha at 10 mg/kg, po measured after 8 days by LC-MS/MS analysis; assay type: ADME, organism-based; conditions: in vivo, 192 h, time 8 day
[3] = Dose normalized AUC in OF1 mouse plasma at 3 mg/kg, iv measured upto 24 hrs by LC-MS/MS analysis; assay type: ADME, organism-based; conditions: in vivo
[4] = tested on: Rat1; test: Antitumor activity at rat Rat1 cells expressing myr-p110alpha xenografted in athymic nude mouse assessed as tumor growth inhibition at 40 mg/kg, po bid measured after 9 days; assay type: functional; conditions: Rat1, 216 h, time 9 day
[5] = Tmax in beagle dog at 0.3 mg/kg, po measured upto 24 hrs by LC-MS/MS analysis; assay type: ADME, organism-based, Canis lupus familiaris; conditions: in vivo
[6] = Drug concentration in OF1 mouse brain at 1 mg/kg, iv measured at 5 mins post dose by LC-MS/MS analysis; assay type: ADME, organism-based; conditions: in vivo
[7] = Half life in Sprague-Dawley rat at 3 mg/kg, po or iv measured upto 24 hrs by LC-MS/MS analysis; assay type: ADME, organism-based; conditions: in vivo
[8] = Toxicity in athymic nude mouse xenografted with rat Rat1 cells expressing myr-p110delta assessed as drug tolerance at 20 mg/kg, po bid measured for 7 to 15 days; assay type: organism-based; conditions: in vivo, time 7-15 day
[9] = Oral bioavailability in Sprague-Dawley rat at 20 mg/kg using crystalline form of sample; assay type: ADME, organism-based; conditions: in vivo
[10] = tested on: Mus musculus; test: In vivo Inhibition of AKT phosphorylation at Ser473 residue in athymic nude mouse xenografted with rat Rat1-myr-p110alpha cells at 10 mg/kg, po qd measured after 1 to 4 hrs; assay type: functional, organism-based; conditions: time 1-4 hrs
[11] = Cmax in OF1 mouse at 10 mg/kg,po or 3 mg/kg,iv measured upto 24 hrs by LC-MS/MS analysis; assay type: ADME, organism-based; parameters: time < 24 hrs, dose 10 mg/kg, route po; conditions: in vivo
[12] = AUCinfinity in Beagle dog at 5.4 mg/kg, po measured upto 24 hrs using PVP-ASD form of sample by LC-MS/MS analysis; assay type: ADME, organism-based, Canis lupus familiaris; parameters: time < 24 hrs, dose 5.4 mg/kg, route po; conditions: in vivo
[13] = Tmax in Sprague-Dawley rat at 30 mg/kg, po measured upto 24 hrs by LC-MS/MS analysis; assay type: ADME, organism-based; conditions: in vivo
[14] = Dose normalized AUC in beagle dog at 3 mg/kg, po measured upto 24 hrs by LC-MS/MS analysis; assay type: ADME, organism-based, Canis lupus familiaris; conditions: in vivo
[15] = Solubility of compound in simulated gastric fluid at pH 2 measured upto 30 mins by HPLC analysis; assay type: physicochemical
[16] = AUCinfinity in Beagle dog at 6 mg/kg, po measured upto 24 hrs using crystalline form of sample by LC-MS/MS analysis; assay type: ADME, organism-based, Canis lupus familiaris; parameters: dose 6 mg/kg, time < 24 hrs, route po; conditions: in vivo
[17] = Half life in beagle dog at 0.3 mg/kg,po or 0.1 mg/kg,iv measured upto 24 hrs by LC-MS/MS analysis; assay type: ADME, organism-based, Canis lupus familiaris; conditions: in vivo
[18] = In vivo Inhibition of AKT phosphorylation at Ser473 residue in plasma of athymic nude mouse xenografted with rat Rat1 cells expressing myr-p110alpha; assay type: functional, organism-based
[19] = Inhibition of wild type PI3K in human Hs-578T cells assessed as reduction in phosphorylation of AKT at Ser473 residue by Western blot analysis; assay type: cell-based
[20] = Oral bioavailability in Sprague-Dawley rat at 21.5 mg/kg using hydroxypropyl methylcellulose amorphous solid dispersion form of sample; assay type: ADME, organism-based; conditions: in vivo
[21] = Cmax in athymic nude mouse xenografted with rat Rat1 cells expressing myr-p110alpha at 20 mg/kg, po measured after 8 days by LC-MS/MS analysis; assay type: ADME, organism-based; parameters: time 8 day, dose 20 mg/kg, route po; conditions: in vivo
[22] = Dose normalized Cmax in Sprague-Dawley rat at 3 mg/kg, po measured upto 24 hrs by LC-MS/MS analysis; assay type: ADME, organism-based; conditions: in vivo
[23] = Dose normalized Cmax in beagle dog at 3 mg/kg, po measured upto 24 hrs by LC-MS/MS analysis; assay type: ADME, organism-based, Canis lupus familiaris; conditions: in vivo
[24] = Clast in athymic nude mouse xenografted with rat Rat1 cells expressing myr-p110alpha at 10 mg/kg, po measured after 8 days by LC-MS/MS analysis; assay type: ADME, organism-based; conditions: in vivo, time 8 day, read-out: Clast
[25] = Inhibition of wild type PI3K in human HCC1806 cells assessed as reduction in phosphorylation of AKT at Ser473 residue by Western blot analysis; assay type: cell-based
[26] = Cmax in beagle dog at 0.3 mg/kg,po or 0.1 mg/kg,iv measured upto 24 hrs by LC-MS/MS analysis; assay type: ADME, organism-based, Canis lupus familiaris; parameters: dose 0.3 mg/kg, time < 24 hrs, route po; conditions: in vivo
[27] = Aqueous solubility of compound in buffer at pH 4 by HPLC analysis; assay type: physicochemical
[28] = Aqueous solubility of compound in buffer at pH 6.8 by HPLC analysis; assay type: physicochemical
[29] = Dose normalized AUC in beagle dog at 0.3 mg/kg, po measured upto 24 hrs by LC-MS/MS analysis; assay type: ADME, organism-based, Canis lupus familiaris; conditions: in vivo

For `C[C@H]1OC(=O)N(c2nc(-c3cnc(N)nc3C(F)(F)F)cc(N3CCOCC3)n2)[C@H]1CO`, the Activity [1] was “Toxic”, the Tlast [2] was 14 h and the AUC/dose [3] was 3580 nM·h. It also gave an inhibition in vivo at 40 mg/kg [4] greater than 80%, a Tmax [5] of 1 h and a Ct [6] of 67 pmol/g. The half-life [7] was 3.3 h, the Activity [8] was “Toxic” and the bioavailability [9] was 20%. For the same compound, the inhibition [10] was “Active”, the Cmax [11] was 422 nM and the AUC(0-inf) [12] was 152 µM·h. For the same compound, the Tmax [13] was 4 h, the AUC/dose [14] was 11213 nM·h and the solubility at 0.5 h [15] was 64 µM (≈ 29.1 µg/mL). It also gave an AUC(0-inf) [16] of 44.6 µM·h, a half-life [17] of 11 h and an IC80 [18] of 800 nM. For the same compound, the IC50 ([18]; Mus musculus) was 200 nM, the IC50 [19] was 27 nM and the bioavailability [20] was 100%. It also gave a Cmax [21] of 2910 nM, a Cmax/dose [22] of 213 nM and a Cmax/dose [23] of 309 nM. The concentration at 192 h [24] was 140 nM, the IC50 [25] was 204 nM and the Cmax [26] was 1120 nM. It also gave a solubility [27] of 31 µM (≈ 14.1 µg/mL), a solubility [28] of 29 µM (≈ 13.2 µg/mL) and an AUC/dose [29] of 12970 nM·h.
